Experimental data published in patent publication US20140335083A1, “METHODS OF TREATMENT AND PREVENTION OF EYE DISEASES” (GLAXO GROUP LIMITED, priority 2011, published 2014).
Read-outs that look alike come from different tables or passages of the source. Blank lines part the entries; values can stand above or below the compound they belong to.

Legend:
[1] = test system: laser-induced model of CNV AMD; settings: oral dosing; Mizutani et al., 2011; cited from earlier work
[2] = test system: laser-induced CNV in Cynomolgus monkey; assay: Laser-induced choroidal neovascular AMD study in the Cynomolgus monkey, Grade IV lesions; assay type: in vivo
Protocol: Cynomolgus monkeys were dosed with vehicle or the CCR3 antagonist tool compound the '415 compound as shown in Table A for 29 days with laser occurring […]. […]
The macula of each eye underwent laser treatment with a 532-nm diode green laser burns (OcuLight GL, IRIDEX Corp Inc, Mountain View, Calif.) using a slit lamp delivery system and a Kaufman-Wallow (Ocular Instruments Inc, Bellevue, Wash.) plano fundus contact lens. Animals were anesthetized and nine areas symmetrically placed in the macula of each eye. The laser parameters included a 75-micron spot size and 0.1-second duration. The power setting used was assessed by the ability to produce a blister and a small haemorrhage. Unless haemorrhage is observed with the first laser treatment, a second laser spot will be placed adjacent to the first following the same laser procedure (except the wattage would be adjusted). For areas not adjacent to the fovea, the initial power setting was 500 mW; if a second spot is placed, the power was set to 650 mW. For the area adjacent to the fovea, the power settings was 400 mW (initial treatment) and 550 mW (second treatment). […]
Animals were fasted before fluorescein angiography for at least 2 hours prior to being anesthetized and the eyes dilated with a mydriatic agent. […] Comparison of the incidence of Grade IV lesions between groups was evaluated.

Cynomolgus monkey CCR3 = molecular target: T1, Cynomolgus monkey CCR3 (Macaca fascicularis, UniProt Q9BDS8); assay: Cynomolgus monkey whole blood eotaxin-stimulated eosinophil shape change assay; assay type: cell-based
T1 construct: from tissue; host or cells: Cynomolgus monkey whole blood (eosinophils)
T1 sequence (Q9BDS8 1-355): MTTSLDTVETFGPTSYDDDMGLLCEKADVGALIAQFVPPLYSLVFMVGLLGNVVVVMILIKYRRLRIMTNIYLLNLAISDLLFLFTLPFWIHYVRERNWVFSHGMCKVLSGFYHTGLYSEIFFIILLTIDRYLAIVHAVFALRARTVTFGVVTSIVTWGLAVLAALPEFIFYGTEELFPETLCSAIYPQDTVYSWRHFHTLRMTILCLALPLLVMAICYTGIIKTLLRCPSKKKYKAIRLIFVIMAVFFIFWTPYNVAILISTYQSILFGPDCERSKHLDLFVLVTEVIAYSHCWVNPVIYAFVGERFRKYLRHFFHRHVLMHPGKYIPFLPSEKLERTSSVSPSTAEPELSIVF
Protocol: Blood (10 mL) was taken from Cynomolgus monkeys and 1.1 ml of 3.8% sodium citrate solution added. Aliquots (90 μl) were incubated with antagonist at room temperature for 10 minutes then transferred to BSA-coated micronic tubes containing agonist (10 μl human eotaxin (Peprotech) Eotaxin was present at final concentrations between 0 and 1000 nM. The cells were incubated at 37° C. for a further 4 minutes before addition of […] of ice-cold fixation buffer (a ¼ dilution of 1x Cellfix (Becton Dickinson)). After a minimum of 2 minutes the fixed samples were transferred into 2 ml of ice cold erythrocyte lysis buffer (155 mM NH4Cl, 10 mM KHCO3) and incubated on ice until lysis was complete (˜30 minutes). The mean forward scatter of the eosinophil population was then determined on a FACScalibur flow cytometer.
The concentration response curve of eotaxin-1 on eosinophil shape change in Cynomolgus whole blood and the effect of pre-incubation of 10 nM and 100 nM the '415 compound is shown in FIG. 11.

[3] = molecular target: T2, Cynomolgus whole blood CCR3 (Macaca fascicularis, UniProt Q9BDS8); assay: Fractional receptor occupancy at trough in Cynomolgus monkey; assay type: in vivo; settings: at trough (8 hours); both 9 mg/kg/day and 60 mg/kg/day, TID
T2 construct: from tissue; host or cells: Cynomolgus monkey whole blood (eosinophils)
T2 sequence (Q9BDS8 1-355): T1 sequence (Q9BDS8 1-355)

[4] = Exposure in Cynomolgus monkey; settings: in vivo
[5] = test system: retinal neovascularization in C57BL/6 mice; assay: Oxygen-induced retinopathy, area of retinal neovascularization; assay type: in vivo; settings: 5 ug peri-ocularly every 5 days
Protocol: C57BL/6 mice placed in 75% O2 at postnatal day (P) 7 and at P12 were returned to room air and treatment initiated with compound or vehicle. At P17, the area of retinal NV on the surface of the retina was measured as described previously (Shen et al., 2007). Briefly, P17 mice were given an intraocular injection of 1 μl of rat anti-mouse platelet endothelial cell adhesion molecule-1 (PECAM-1) antibody (Pharmingen, San Jose, Calif., USA); after 12 h, they were euthanized, and eyes were fixed in PBS-buffered formalin for 5 h at room temperature. Retinas were dissected, washed, and incubated with goat-anti rat polyclonal antibody conjugated with Alexa 488 (Invitrogen, Carlsbad, Calif., USA) at 1:500 dilution at room temperature for 45 min and flat mounted. An observer masked with respect to treatment group measured the area of NV per retina by image analysis.
(see, FIGS. 12 and 13). In systemic experiments both eyes were examined and no significant differences were observed between CCR3 inhibitor '994 and vehicle treated groups. In topical experiments no significant differences were noted between CCR3 inhibitor '994 and vehicle groups nor treated and fellow eye in the CCR3 inhibitor '994 treated group. […] Consequently SU4312 acts similarly on retinal neovascularization to that of an alternative receptor tyrosine kinase inhibitor pazopanib which was effective in limiting choroidal neovascularization.

Compound: Cc1ccc[n+]([O-])c1C(=O)N1CCC(=CC(=O)NC2CCN(Cc3ccc4cc(F)ccc4c3)C2)CC1 (centres unmarked) [YM-344031]
efficacy in a laser-induced model of CNV AMD [1]: effective

Kb (Cynomolgus monkey CCR3; depending on experiment, read-out: pA2, potency against Cynomolgus monkey CCR3 (converted)): 10 to 100 nM
Kb (Cynomolgus monkey CCR3; eotaxin-1 stimulated eosinophil shape change in Cynomolgus whole blood, read-out: mean pA2 (Schild analysis) (converted)): 15.8 nM
fractional receptor occupancy [3]: > 95%
Compound: Cn1nnc(CNC(=O)NC[C@H]2CN(Cc3ccc(Cl)c(Cl)c3)CCO2)n1 [the '415 compound, (S)-1-((4-(3,4-dichlorobenzyl)morpholin-2-yl)methyl)-3-((2-methyl-2H-tetrazol-5-yl)methyl)urea]
effect on the generation of grade IV lesions ([2]; 20 mg/kg TID po, fluorescence angiography at 16, 24 and 30 days post-laser): statistically robust effect
effect on the number of grade IV lesions ([2]; lower dose (3 mg/kg TID po)): not statistically different from controls
inhibition of human eotaxin-induced eosinophil shape change (Cynomolgus monkey CCR3; Cynomolgus whole blood): concentration-dependent, surmountable inhibition
exposure in Cynomolgus monkey [4]: reasonable exposure in this primate with low inter-animal variability

Compound: CN(C)c1ccc(/C=C2\C(=O)Nc3ccccc32)cc1 [SU4312]
effect on retinal neovascularization [5]: effective inhibitor
p, reduction in retinal neovascularization, treated versus fellow (non-treated) eyes [5]: < 0.004
p, reduction in retinal neovascularization, treated versus vehicle treated eyes [5]: < 0.003
